Experiments:
[1] = system: Escherichia coli; assay: minimum bactericidal concentration (MBC) assay; assay type: cell-based
Experimental: (§1) Synergy was also assayed by both agar, and broth microdilution methods. Additional information gathered about the synergistic effect of the described composition as a combination therapy was evaluated by determining bacterial killing effect. This was performed as described above for the checkerboard synergy assay with the exception that the bacterial count in an assay well was determined by plating at the beginning of the experiment, and identifying at the end of incubation for an assay well where growth was inhibited. This has been adapted from both the broth microdilution, and the bactericidal assays (Clinical Laboratory Standards Institute (1999) Methods for Determining Bactericidal Activity of Antimicrobial Agents; Approved Guideline M26-A, Vol. 19, No. 18). […] The value derived was the reduction in bacterial numbers (viability) for the compounds when alone versus the described composition comprising the combined antibiotics.
(§2) As there is no published definition for bactericidal synergy, MIC metric was utilized.

[2] = system: Pseudomonas aeruginosa; assay: minimum bactericidal concentration (MBC) assay; assay type: cell-based
Experimental: as §1, §2

[3] = system: Enterococcus faecalis; assay: minimum bactericidal concentration (MBC) assay; assay type: cell-based
Experimental: as §1, §2

[4] = system: Staphylococcus aureus; assay: minimum bactericidal concentration (MBC) assay; assay type: cell-based
Experimental: as §1, §2

[5] = system: E. faecalis; conditions: cited from earlier work
[6] = system: S. saprophyticus; assay: MIC and synergy checkerboard assay, broth microdilution (uUTI species); assay type: cell-based, Staphylococcus saprophyticus
Experimental: Minimum inhibitory concentration (MIC) assays were performed in a manner as described for the CLSI Agar dilution or broth microdilution assay guideline (see, Clinical Laboratory Standards Institute, 2009, Methods for Dilution Antimicrobial Susceptibility Tests for Bacteria That Grow Aerobically; Approved Standard, Eighth Edition, M07-A8, Vol. 29, No. 2). For example, known antibiotics or the compositions described herein were dissolved, serially diluted, and then added to tempered molten Mueller-Hinton Agar before pouring of plates; or were dissolved, and then serially diluted in 100 μL cation-adjusted Mueller-Hinton broth across the assay plate in the classical 2-fold geometric format. D-glucose-6-phosphate was included as a medium supplement in both agar, and broth at a concentration of 50 mg/L. Antibiotic concentrations for agar assay were at the final concentration. Antibiotic concentrations for broth microdilution in each well at this point were double what the final assay concentration would be. Bacterial inocula were prepared by swabbing several colonies from a fresh agar plate, and re-suspending the bacteria to a density that was the 0.5 McFarland turbidity standard, considered close or equivalent to 1×10^8 CFU/mL. For agar dilution, a steers replicator was utilized to deliver 1×10^4 CFU/spot. For broth microdilution, the bacterial inocula were diluted in the cation-adjusted Mueller-Hinton broth to 1×10^6 CFU/mL, and 100 μL was overlayered onto the wells containing a diluted antibiotic or a composition described. Following incubation as per the guideline, results were recorded as growth or no growth, and the lowest concentration of the antibiotic or the composition described where no growth was observed was declared the MIC. […]

[7] = system: susceptible bacteria; conditions: susceptible strains of Escherichia coli and Enterococcus faecalis; cited from earlier work
[8] = system: N. gonorrhoeae; assay: MIC and synergy checkerboard assay, agar dilution on GC agar; assay type: cell-based
Experimental: Minimum inhibitory concentration (MIC) assays were performed in a manner as described for the CLSI Agar dilution or broth microdilution assay guideline (see, Clinical Laboratory Standards Institute, 2009, Methods for Dilution Antimicrobial Susceptibility Tests for Bacteria That Grow Aerobically; Approved Standard, Eighth Edition, M07-A8, Vol. 29, No. 2). For example, known antibiotics or the compositions described herein were dissolved, serially diluted, and then added to tempered molten Mueller-Hinton Agar before pouring of plates; or were dissolved, and then serially diluted in 100 μL cation-adjusted Mueller-Hinton broth across the assay plate in the classical 2-fold geometric format. D-glucose-6-phosphate was included as a medium supplement in both agar, and broth at a concentration of 50 mg/L. Antibiotic concentrations for agar assay were at the final concentration. Antibiotic concentrations for broth microdilution in each well at this point were double what the final assay concentration would be. Bacterial inocula were prepared by swabbing several colonies from a fresh agar plate, and re-suspending the bacteria to a density that was the 0.5 McFarland turbidity standard, considered close or equivalent to 1×10^8 CFU/mL. For agar dilution, a steers replicator was utilized to deliver 1×10^4 CFU/spot. For broth microdilution, the bacterial inocula were diluted in the cation-adjusted Mueller-Hinton broth to 1×10^6 CFU/mL, and 100 μL was overlayered onto the wells containing a diluted antibiotic or a composition described. Following incubation as per the guideline, results were recorded as growth or no growth, and the lowest concentration of the antibiotic or the composition described where no growth was observed was declared the MIC.
To assay for synergy of antibacterial combinations, a recognized synergy checkerboard assay, adapted from the CLSI guideline microdilution assay, was utilized (see Eliopoulos, G. M., and Moellering, R. C, Jr., 1996. Antimicrobial Combinations, pg. 330-396. In: Lorian, V. (Ed.), Antibiotics in Laboratory Medicine, 4th Ed., Williams & Wilkins; Baltimore, MD). In the case of the agar dilution method, each antibiotic alone, or in combination was added to agar prior to plate pouring. For broth microdilution, the first compound (or antibiotic or agent) was diluted in cation-adjusted Mueller-Hinton broth across the plate along the horizontal axis with each well in a row containing 50 μL of an identical concentration of compound (or antibiotic). Along the vertical axis a dilution series of the second compound (or antibiotic) was dispensed. At this point the drug concentrations are four-fold of the final desired working concentration. […] Following incubation, wells with no growth are noted. […] FIC=(MIC-A combination/MIC-A alone)+(MIC-B combination/MIC-B alone).
In the above, FIC: Synergy=FIC<0.5; Additive=FIC>0.5-1; Indifferent=FIC>1-2; Antagonism=FIC>2-4.
Synergy is also identified in TABLE 9 (utilizing the agar checkerboard assay) against N. gonorrhoeae. In these analyses, the agar dilution was performed utilizing GC agar supplemented with Isovitalex, and 50 mg/L of D-glucose-6-phosphate. […] MIC comparator data was performed using the following known antibiotics: Ceftriaxone, Azithromycin, Cefixime, Ciprofloxacin, Tetracycline, Pristinamycin, Solithromycin, and Delafloxacin. Pristinamycin was purified from capsules obtained in France; Solithromycin, and Delafloxacin were synthesized internally for comparison.

C[C@@H]1O[C@@H]1P(=O)(O)O [Fosfomycin, cis-1,2-epoxypropyl phosphonic acid]
MBC, lowest concentration providing a >3-log reduction within 24 hours (Combo as F/DP/SM; second compound as DP/SM) ([1]; Escherichia coli (854535)): 256 μg/ml
MBC, lowest concentration providing a >3-log reduction within 24 hours (Combo as F/DP/SM; second compound as DP/SM) ([1]; Escherichia coli (928017)): 256 μg/ml
MBC, lowest concentration providing a >3-log reduction within 24 hours (Combo as F/DP/SM; second compound as DP/SM) ([1]; Escherichia coli (ATCC 25922)): 32 μg/ml
MBC, lowest concentration providing a >3-log reduction within 24 hours (Combo as F/DP/SM; second compound as DP/SM) ([2]; Pseudomonas aeruginosa (924190)): >512 μg/ml
MBC, lowest concentration providing a >3-log reduction within 24 hours (Combo as F/DP/SM; second compound as DP/SM) ([2]; Pseudomonas aeruginosa (985543)): 512 μg/ml
MBC, lowest concentration providing a >3-log reduction within 24 hours (Combo as F/DP/SM; second compound as DP/SM) ([3]; Enterococcus faecalis (ATCC 29212)): ≥512 μg/ml
MBC, lowest concentration providing a >3-log reduction within 24 hours (Combo as F/DP/SM; second compound as DP/SM) ([3]; Enterococcus faecalis (MGH-01) (VanA)): ≥512 μg/ml
MBC, lowest concentration providing a >3-log reduction within 24 hours (Combo as F/DP/SM; second compound as DP/SM) ([3]; Enterococcus faecalis (MGH-06)): 512 μg/ml
MBC, lowest concentration providing a >3-log reduction within 24 hours (Combo as F/DP/SM; second compound as DP/SM) ([4]; Staphylococcus aureus (918019 - MRSA)): 128 μg/ml
MBC, lowest concentration providing a >3-log reduction within 24 hours (Combo as F/DP/SM; second compound as DP/SM) ([4]; Staphylococcus aureus (959797 - MRSA)): 64 μg/ml
MBC, lowest concentration providing a >3-log reduction within 24 hours (Combo as F/DP/SM; second compound as DP/SM) ([4]; Staphylococcus aureus (ATCC 29213 - MSSA)): 128 μg/ml
MBC, lowest concentration providing a >3-log reduction within 24 hours (Combo as F/DP/SM; second compound as DP/SM) ([4]; Staphylococcus aureus (ATCC 33591) (MRSA)): 256 μg/ml
MBC, lowest concentration providing a >3-log reduction within 24 hours (Combo as F/DP/SM; second compound as DP/SM) ([4]; Staphylococcus aureus (MGH-04)): 256 μg/ml
MBC, lowest concentration providing a >3-log reduction within 24 hours (Combo as F/DP/SM; second compound as DP/SM) ([4]; Staphylococcus aureus (USA-300 CDC- MRSA)): 256 μg/ml
MIC [5]: 32 to 128 µg/mL
MIC (Combo as F/DP/SM; second compound as DP/SM) ([6]; S. saprophyticus 1119421): 32 µg/mL
MIC (Combo as F/DP/SM; second compound as DP/SM) ([6]; S. saprophyticus 1124324): 32 µg/mL
MIC (Combo as F/DP/SM; second compound as DP/SM) ([6]; S. saprophyticus 1136894): 64 µg/mL
MIC [7]: ≤ 64 µg/mL
MIC (Combo as F/DP/SM; second compound as DP/SM) ([8]; N. gonorrhoeae 127781): 16 µg/mL
MIC (Combo as F/DP/SM; second compound as DP/SM) ([8]; N. gonorrhoeae 127782): 16 µg/mL
MIC (Combo as F/DP/SM; second compound as DP/SM) ([8]; N. gonorrhoeae 127783): 16 µg/mL
MIC (Combo as F/DP/SM; second compound as DP/SM) ([8]; N. gonorrhoeae 127786): 16 µg/mL
MIC (Combo as F/DP/SM; second compound as DP/SM) ([8]; N. gonorrhoeae 1117522): 16 µg/mL
MIC (Combo as F/DP/SM; second compound as DP/SM) ([8]; N. gonorrhoeae 1117523): 16 µg/mL
MIC (Combo as F/DP/SM; second compound as DP/SM) ([8]; N. gonorrhoeae 1117524): 8 µg/mL
MIC (Combo as F/DP/SM; second compound as DP/SM) ([8]; N. gonorrhoeae 1117525): 8 µg/mL
MIC (Combo as F/DP/SM; second compound as DP/SM) ([8]; N. gonorrhoeae 1117527): 8 µg/mL
